# Columns and labels:
# [1] = target: T1, Alpha-2A adrenergic receptor (Homo sapiens, UniProt P08913); type: functional, cell-based
# T1 sequence (P08913 whole entry): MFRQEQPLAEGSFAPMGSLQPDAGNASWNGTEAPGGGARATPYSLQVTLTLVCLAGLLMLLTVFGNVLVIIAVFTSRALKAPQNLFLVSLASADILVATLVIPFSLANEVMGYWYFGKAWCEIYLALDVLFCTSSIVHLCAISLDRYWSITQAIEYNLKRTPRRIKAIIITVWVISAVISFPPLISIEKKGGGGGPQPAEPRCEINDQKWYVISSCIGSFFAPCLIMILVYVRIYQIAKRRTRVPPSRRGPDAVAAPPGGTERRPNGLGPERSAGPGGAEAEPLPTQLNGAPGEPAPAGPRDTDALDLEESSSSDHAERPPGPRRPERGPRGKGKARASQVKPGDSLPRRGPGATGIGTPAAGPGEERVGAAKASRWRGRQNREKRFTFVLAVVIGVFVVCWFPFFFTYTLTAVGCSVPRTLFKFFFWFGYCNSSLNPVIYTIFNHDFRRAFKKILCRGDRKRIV
# B2 bradykinin receptor = target: T2, B2 bradykinin receptor (Homo sapiens, UniProt P30411)
# T2 sequence (P30411 whole entry): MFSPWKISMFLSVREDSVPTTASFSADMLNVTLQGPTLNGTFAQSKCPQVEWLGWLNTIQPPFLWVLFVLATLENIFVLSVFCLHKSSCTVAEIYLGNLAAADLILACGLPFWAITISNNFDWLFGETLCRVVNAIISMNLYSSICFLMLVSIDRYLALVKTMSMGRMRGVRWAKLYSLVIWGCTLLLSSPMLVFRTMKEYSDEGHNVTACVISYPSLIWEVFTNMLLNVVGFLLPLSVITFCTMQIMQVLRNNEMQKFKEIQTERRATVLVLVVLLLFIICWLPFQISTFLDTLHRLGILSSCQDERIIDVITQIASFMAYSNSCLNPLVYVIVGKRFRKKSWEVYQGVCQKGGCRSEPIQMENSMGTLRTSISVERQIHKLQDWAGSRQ
# Cannabinoid receptor 1 = Cannabinoid receptor 1 (Homo sapiens, UniProt P21554); type: functional, cell-based
# Histamine H2 receptor = Histamine H2 receptor (Homo sapiens, UniProt P25021); type: functional, cell-based
# [2] = target: T3, 5-hydroxytryptamine receptor 1A (Homo sapiens, UniProt P08908); type: functional, cell-based
# T3 sequence (P08908 whole entry): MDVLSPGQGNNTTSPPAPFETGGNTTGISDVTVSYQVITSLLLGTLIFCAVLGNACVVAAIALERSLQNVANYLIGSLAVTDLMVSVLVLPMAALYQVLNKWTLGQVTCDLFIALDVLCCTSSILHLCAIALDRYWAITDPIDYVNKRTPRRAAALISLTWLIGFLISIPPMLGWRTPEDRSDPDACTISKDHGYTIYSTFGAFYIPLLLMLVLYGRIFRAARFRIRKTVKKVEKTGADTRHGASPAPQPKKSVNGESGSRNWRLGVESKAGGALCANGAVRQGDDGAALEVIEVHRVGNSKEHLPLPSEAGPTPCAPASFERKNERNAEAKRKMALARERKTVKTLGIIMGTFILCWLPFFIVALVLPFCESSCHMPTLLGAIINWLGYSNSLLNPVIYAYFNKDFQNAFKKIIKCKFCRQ
# [3] = target: T3, 5-hydroxytryptamine receptor 1A; type: functional, cell-based; remark: listed apart in the source
# Mu-type opioid receptor = Mu-type opioid receptor (Homo sapiens, UniProt P35372); experiment: biochemical; type: functional
# [4] = target: T4, Equilibrative nucleoside transporter 1 (Homo sapiens, UniProt Q99808)
# T4 sequence (Q99808 whole entry): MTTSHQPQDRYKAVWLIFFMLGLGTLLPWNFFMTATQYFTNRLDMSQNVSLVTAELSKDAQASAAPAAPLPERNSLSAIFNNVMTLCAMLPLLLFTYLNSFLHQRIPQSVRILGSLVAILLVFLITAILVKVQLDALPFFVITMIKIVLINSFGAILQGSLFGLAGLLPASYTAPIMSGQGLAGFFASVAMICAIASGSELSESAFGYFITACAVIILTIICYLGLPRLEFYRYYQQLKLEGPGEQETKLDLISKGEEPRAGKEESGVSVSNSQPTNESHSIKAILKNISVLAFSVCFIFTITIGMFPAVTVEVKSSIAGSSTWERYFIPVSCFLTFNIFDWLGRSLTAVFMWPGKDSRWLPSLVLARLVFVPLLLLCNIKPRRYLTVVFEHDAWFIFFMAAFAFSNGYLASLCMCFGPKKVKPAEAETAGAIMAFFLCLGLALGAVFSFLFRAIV
# Thromboxane A2 receptor = target: T5, Thromboxane A2 receptor (Homo sapiens, UniProt P21731)
# T5 sequence (P21731 whole entry): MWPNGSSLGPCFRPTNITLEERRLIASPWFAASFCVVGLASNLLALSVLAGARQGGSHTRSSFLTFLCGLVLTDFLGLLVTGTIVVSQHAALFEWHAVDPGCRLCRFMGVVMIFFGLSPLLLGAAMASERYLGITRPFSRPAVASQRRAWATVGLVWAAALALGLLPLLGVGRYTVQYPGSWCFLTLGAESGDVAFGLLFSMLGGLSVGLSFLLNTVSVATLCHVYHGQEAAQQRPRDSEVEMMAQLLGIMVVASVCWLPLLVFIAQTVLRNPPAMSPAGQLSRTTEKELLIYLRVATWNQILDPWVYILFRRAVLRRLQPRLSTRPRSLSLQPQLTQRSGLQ
# [5] = target: T6, Amine oxidase [flavin-containing] A (Homo sapiens, UniProt P21397); type: functional
# T6 sequence (P21397 whole entry): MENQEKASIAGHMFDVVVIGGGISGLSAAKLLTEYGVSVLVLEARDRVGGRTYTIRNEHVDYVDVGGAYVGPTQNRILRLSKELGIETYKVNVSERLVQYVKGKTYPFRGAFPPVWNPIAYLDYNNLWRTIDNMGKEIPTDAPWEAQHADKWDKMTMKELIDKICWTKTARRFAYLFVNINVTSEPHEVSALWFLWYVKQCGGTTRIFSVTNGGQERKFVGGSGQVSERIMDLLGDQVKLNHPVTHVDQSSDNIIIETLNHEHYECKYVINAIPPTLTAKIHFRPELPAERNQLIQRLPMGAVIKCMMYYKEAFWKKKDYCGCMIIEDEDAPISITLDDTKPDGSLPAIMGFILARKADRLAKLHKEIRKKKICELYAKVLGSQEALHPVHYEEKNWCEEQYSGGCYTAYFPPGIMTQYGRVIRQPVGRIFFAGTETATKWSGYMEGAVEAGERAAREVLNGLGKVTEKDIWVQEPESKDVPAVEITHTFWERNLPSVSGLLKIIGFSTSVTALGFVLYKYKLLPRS
# Histamine H3 receptor = Histamine H3 receptor (Homo sapiens, UniProt Q9Y5N1)
# Further: assay procedure not described here.
# Cannabinoid receptor 1, sequence (P21554 whole entry): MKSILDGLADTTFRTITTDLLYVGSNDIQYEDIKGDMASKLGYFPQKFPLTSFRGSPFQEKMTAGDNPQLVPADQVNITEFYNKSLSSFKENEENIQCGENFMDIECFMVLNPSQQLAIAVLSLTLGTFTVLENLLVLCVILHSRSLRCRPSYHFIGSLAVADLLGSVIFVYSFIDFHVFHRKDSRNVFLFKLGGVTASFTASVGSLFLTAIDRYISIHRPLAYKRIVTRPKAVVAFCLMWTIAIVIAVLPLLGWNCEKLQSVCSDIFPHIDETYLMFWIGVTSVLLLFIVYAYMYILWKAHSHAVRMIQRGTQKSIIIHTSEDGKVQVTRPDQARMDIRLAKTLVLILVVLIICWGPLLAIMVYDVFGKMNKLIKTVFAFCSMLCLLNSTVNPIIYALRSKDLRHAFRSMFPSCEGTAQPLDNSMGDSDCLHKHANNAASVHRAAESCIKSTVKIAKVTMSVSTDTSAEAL
# Mu-type opioid receptor, sequence (P35372 whole entry): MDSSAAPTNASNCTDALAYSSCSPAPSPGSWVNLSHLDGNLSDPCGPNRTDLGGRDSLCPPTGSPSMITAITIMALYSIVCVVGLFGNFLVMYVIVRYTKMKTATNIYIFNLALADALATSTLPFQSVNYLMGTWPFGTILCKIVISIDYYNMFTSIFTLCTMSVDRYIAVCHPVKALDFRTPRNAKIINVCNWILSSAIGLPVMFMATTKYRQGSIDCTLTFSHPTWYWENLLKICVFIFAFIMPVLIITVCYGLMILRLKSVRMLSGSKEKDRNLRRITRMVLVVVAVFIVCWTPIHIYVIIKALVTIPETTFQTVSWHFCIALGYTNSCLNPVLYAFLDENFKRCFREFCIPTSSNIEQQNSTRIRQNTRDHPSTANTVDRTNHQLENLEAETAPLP
# Histamine H2 receptor, sequence (P25021 whole entry): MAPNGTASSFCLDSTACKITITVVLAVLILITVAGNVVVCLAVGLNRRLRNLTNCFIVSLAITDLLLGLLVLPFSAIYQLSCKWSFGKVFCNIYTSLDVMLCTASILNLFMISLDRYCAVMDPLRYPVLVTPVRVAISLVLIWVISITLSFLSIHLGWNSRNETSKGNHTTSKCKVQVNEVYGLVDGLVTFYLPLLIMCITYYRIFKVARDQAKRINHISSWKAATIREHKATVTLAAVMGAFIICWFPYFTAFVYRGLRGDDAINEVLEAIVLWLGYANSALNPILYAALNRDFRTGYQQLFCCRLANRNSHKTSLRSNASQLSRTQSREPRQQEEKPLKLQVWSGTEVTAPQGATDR
# Histamine H3 receptor, sequence (Q9Y5N1 whole entry): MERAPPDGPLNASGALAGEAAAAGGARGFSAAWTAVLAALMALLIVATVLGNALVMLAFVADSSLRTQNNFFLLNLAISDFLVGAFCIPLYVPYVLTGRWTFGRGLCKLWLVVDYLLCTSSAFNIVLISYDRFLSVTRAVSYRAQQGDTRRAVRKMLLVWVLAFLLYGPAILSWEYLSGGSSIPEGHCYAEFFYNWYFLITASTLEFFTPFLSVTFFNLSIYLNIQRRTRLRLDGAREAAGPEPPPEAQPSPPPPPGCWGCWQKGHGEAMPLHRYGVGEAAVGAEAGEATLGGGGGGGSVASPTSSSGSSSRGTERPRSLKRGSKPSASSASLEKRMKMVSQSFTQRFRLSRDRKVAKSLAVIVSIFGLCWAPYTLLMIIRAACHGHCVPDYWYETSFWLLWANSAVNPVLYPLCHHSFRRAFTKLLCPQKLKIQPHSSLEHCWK
Structure (SMILES),AC50 [1] [µM],AC50 (B2 bradykinin receptor) [µM],AC50 (Cannabinoid receptor 1) [µM],AC50 (Histamine H2 receptor) [µM],AC50 [2] [µM],AC50 [3] [µM],AC50 (Mu-type opioid receptor) [µM],AC50 [4] [µM],AC50 (Thromboxane A2 receptor) [µM],AC50 [5] [µM],AC50 (Histamine H3 receptor) [µM]
COc1ccc(-c2ccc3cc(C(=O)O)ccc3c2)cc1C12CC3CC(CC(C3)C1)C2,> 30,> 30,> 30,> 30,> 30,> 30,> 30,> 30,> 30,> 30,> 30
CCOC(=O)[C@H](CCc1ccccc1)N[C@@H](C)C(=O)N1C(=O)N(C)C[C@H]1C(=O)O,> 30,> 30,> 30,> 30,> 30,> 30,> 30,> 30,> 30,> 30,> 30
CC(C)(C)C(=O)Oc1ccc(S(=O)(=O)Nc2ccccc2C(=O)NCC(=O)O)cc1,> 30,> 30,> 30,> 30,> 30,> 30,> 30,,> 30,> 30,> 30
O=C(O)CCCCCCNC1c2ccccc2CCc2ccccc21 [AMINEPTINE],> 30,> 30,> 30,> 30,> 30,> 30,> 30,> 30,> 30,> 30,> 30
COc1ccccc1OCCNCC(O)c1ccc(C)c(S(N)(=O)=O)c1 (stereo unspecified) [AMOSULALOL],9.1,> 30,> 30,> 30,> 30,0.16,> 30,> 30,> 30,> 30,> 30
Cn1c(=O)c2c(ncn2CC2OCCO2)n(C)c1=O [DOXOFYLLINE],> 30,> 30,> 30,> 30,> 30,> 30,> 30,> 30,> 30,> 30,> 30
COc1ccc(CCN(C)CCCC(C#N)(c2cc(OC)c(OC)c(OC)c2)C(C)C)cc1OC (stereo unspecified) [GALLOPAMIL],25,> 30,> 30,> 30,> 30,11,> 30,,> 30,> 30,> 30
CCC(C(=O)O)c1ccc(N2Cc3ccccc3C2=O)cc1 (stereo unspecified) [INDOBUFEN],> 30,> 30,> 30,> 30,> 30,1.9,> 30,> 30,> 30,> 30,> 30

# Reference: ChEMBL document CHEMBL5291721, “A preclinical secondary pharmacology resource illuminates target-adverse drug reaction associations of marketed drugs” (Nat Commun, 2023)
